According to PMC6413231, “o-Vanillin Derived Schiff Bases and Their Organotin(IV) Compounds: Synthesis, Structural Characterisation, In-Silico Studies and Cytotoxicity” (International Journal of Molecular Sciences, 2019):

What was measured:
[1] = tested on: U87 (glioblastoma) cancer cells; experiment: MTT growth inhibition assay, U87; format: cell-based; details: 72 h, ± standard error, read-out: Growth Inhibition Concentration, GI50
Procedure: (§1) The Schiff bases and their organotin(IV) compounds were screened for in vitro cytotoxicity against a panel of 12 cancer cell lines: EJ-28 (muscle invasive bladder), RT-112 (minimum-invasive bladder), HT29 (colon), U87 and SJ-G2 (glioblastoma), MCF-7 (breast), A2780 (ovarian), H460 (lung), A431 (skin), DU145 (prostate), BE2-C (neuroblastoma), MIA (pancreatic) and one normal breast cell line (MCF-10A) using the MTT metabolic assay (Figure 6). After 72 h of incubation, a dose-dependent […] effect towards the cancer cell lines was measured at very low micromolar (µM) concentrations of the compounds. The growth inhibition concentration of the Schiff bases and their organotin(IV) compounds required to inhibit 50% cell proliferation relative to the cells that were treated with DMSO (control) are given in Table 2. The stability of these compounds was assessed in DMSO as well as in a mixture of DMSO-H2O. The absorbance obtained from UV-vis spectroscopy analysis was monitored for 72 h, and an unchanged pattern in the spectra was indicative that the compounds were stable in both the solvent systems tested.
(§2) For HT29 (colon), U87 and SJ-G2 (glioblastoma), MCF-7 (breast), A2780 (ovarian), H460 (lung), A431 (skin), Du145 (prostate), BE2-C (neuroblastoma), MIA (pancreas) cell lines and one normal breast cell line, MCF-10A (normal breast), the MTT assays were performed using the following method:
(§3) Stock solutions were prepared as follows and stored at −20 °C: Trial compounds were stored as 10 mM solutions in DMSO. All cell lines were cultured in a humidified atmosphere 5% CO2 at 37 °C. The cancer cell lines were maintained in Dulbecco’s modified Eagle’s medium (DMEM) (Trace Biosciences) supplemented with 10% foetal bovine serum, 10 mM sodium bicarbonate, penicillin (100 IU/mL), streptomycin (100 μg/mL) and glutamine (4 mM). The normal cell line, MCF-10A was cultured in DMEM:F12 (1:1) cell culture media, 5% heat inactivated horse serum, supplemented with penicillin (50 IU/mL), streptomycin (50 μg/mL), 20mM Hepes, L-glutamine (2 mM), epidermal growth factor (20 ng/mL), hydrocortisone (500 ng/mL), cholera toxin (100 ng/mL) and insulin (10 μg/mL).
(§4) Cells in logarithmic growth were transferred to 96-well plates. Cytotoxicity was determined by plating cells in duplicate in 100 μL medium at a density of 2500–4000 cells/well. On day 0 (24 h after plating), when the cells were in logarithmic growth, 100 μL medium, with or without the test agent, was added to each well. After 72 h drug exposure, growth inhibitory effects were evaluated using the MTT (3-[4,5-dimethylthiazol-2-yl]-2,5-diphenyltetrazolium bromide) assay and absorbance read at 540 nm. Percentage growth inhibition was determined at a fixed drug concentration of 25 μM. A value of 100% was indicative of complete cell growth inhibition. Those analogues showing appreciable percentage growth inhibition underwent further dose-response analysis allowing for the calculation of a GI50 value. This value is the drug concentration at which cell growth is 50% inhibited based on the difference between the optical density values on day 0 and those at the end of drug exposure.

[2] = tested on: MIA (pancreatic) cancer cells; experiment: MTT growth inhibition assay, MIA; format: cell-based; details: 72 h, ± standard error, read-out: Growth Inhibition Concentration, GI50
Procedure: as §1, §2, §3, §4

calf thymus DNA (CT-DNA) = experiment: CT-DNA binding by UV-vis absorption titration; details: for Bathochromism Shift (nm) / Hypochromism, (%): CT-DNA, UV-vis absorption titration; for Gibbs Free Energy: interaction with CT-DNA
Procedure: Both theoretical and experimental DNA binding of the synthesised organotin(IV) compounds with DNA were investigated. The interaction of organotin(IV) compounds with CT-DNA was elucidated via UV-visible absorption spectroscopy. […] The absorption spectra of diphenyltin(IV) compounds at a constant concentration (50 μM) in the absence and the presence of different concentrations of CT-DNA are shown in Figure 8. Upon increasing concentrations of CT-DNA, hypochromism and bathochromism occurred at around 350–377 nm indicating strong π–π stacking interactions between the aromatic chromophore of the organotin(IV) compounds and the nitrogeneous pair of the DNA strand [11, 70]. The same hypochromism and bathochromism shifts were also observed in other transitions. In order to compare the binding strength of the organotin(IV) compounds to CT-DNA, the intrinsic binding constants (Kb) were quantitatively determined and are presented in Table 3.
DNA binding experiments were carried out at 25°C. DNA concentration per nucleotide was determined using the molar absorption coefficient (6600 M^−1 cm^−1) at 260 nm. […] Absorption titration experiments were performed maintaining the concentration of the organotin(IV) compounds solutions at 50 µM and gradually increasing the concentration of CT-DNA. The organotin(IV) compounds were dissolved in DMSO and diluted with Tris-HCI buffer at room temperature (25 °C). The solutions were scanned over 230–600 nm. Absorbance values were recorded 10 min after the addition of DNA solution. The binding constant, Kb was determined using the equation: [DNA]/(εa−εf)=[DNA]/(εb−εf)+1/Kb(εb−εf) where [DNA] is the concentration of DNA in base pairs, εa corresponds to the apparent molar extinction coefficient Aabs/[M], εf corresponds to the extinction coefficient for the free organotin [M] and εb corresponds to the extinction coefficient for the fully bound organotin compound.

[3] = tested on: BE2-C (neuroblastoma) cancer cells; experiment: MTT growth inhibition assay, BE2-C; format: cell-based; details: 72 h, ± standard error, read-out: Growth Inhibition Concentration, GI50
Procedure: as §1, §2, §3, §4

[4] = tested on: MCF-7 (breast) cancer cells; experiment: MTT growth inhibition assay, MCF-7; format: cell-based; details: MCF-7 cells, 72 h, ± standard error, read-out: Growth Inhibition Concentration, GI50
Procedure: as §1, §2, §3, §4

[5] = tested on: SJ-G2 (glioblastoma) cancer cells; experiment: MTT growth inhibition assay, SJ-G2; format: cell-based; details: for GI50: MTT, 72 h, ± standard error, read-out: Growth Inhibition Concentration, GI50
Procedure: as §1, §2, §3, §4

A431 (skin) cancer cells = experiment: MTT growth inhibition assay, A431; format: cell-based; details: 72 h, ± standard error, read-out: Growth Inhibition Concentration, GI50
Procedure: as §1, §2, §3, §4

[6] = tested on: HT29 (colon) cancer cells; experiment: MTT growth inhibition assay, HT29; format: cell-based; details: 72 h, ± standard error, read-out: Growth Inhibition Concentration, GI50
Procedure: as §1, §2, §3, §4

[7] = tested on: RT-112 (minimum-invasive bladder) cancer cells; experiment: MTT cytotoxicity assay, RT-112; format: cell-based, human; details: RT-112 cells, 72 h, ± standard error, read-out: Growth Inhibition Concentration, GI50
Procedure: as §1
(§5) The inhibitory effect of the synthesised compounds on the growth of bladder (EJ-28 and RT-112) cancer cells was evaluated by MTT assay. […] RT-112 and EJ-28, human bladder cancer cell lines used in this study (ATCC, Manassas, VA, USA) were cultured in RPMI-1640 (High glucose) medium supplemented with 10% fetal bovine serum containing 1% penicillin. The cells were cultured at 37 °C in a humidified atmosphere of 5% CO2 in air. Cells were seeded in 96-well plates at 6000 cells per well for 24 h, then they were treated with different concentrations of compounds for 72 h. The medium was subsequently removed and the wells were washed with 200 µL of phosphate buffer saline. Aliquots of 20 µL of 3-(4,5-dimethylthiazol-2-yl)-2,5-diphenyltetrazolium bromide (MTT) was added to each well and incubated for 4 h at 37 °C. Aliquots of 200 µL of media was then removed from each well and 200 µL of DMSO was added. Optical density (OD) was measured using an ELISA plate reader at 570 nm. Control wells (100% viability), containing media and DMSO, were included in all the experiments. All data points represented an average of triplicate assays. Cytotoxicity was expressed as CD50, i.e., the concentration that reduced the absorbance of treated cells by 50% with reference to the control (untreated cells).

H460 (lung) cancer cells = experiment: MTT growth inhibition assay, H460; format: cell-based; details: 72 h, ± standard error, read-out: Growth Inhibition Concentration, GI50
Procedure: as §1, §2, §3, §4

[8] = tested on: Du145 (prostate) cancer cells; experiment: MTT growth inhibition assay, Du145; format: cell-based; details: 72 h, ± standard error, read-out: Growth Inhibition Concentration, GI50
Procedure: as §1, §2, §3, §4

[9] = tested on: A2780 (ovarian) cancer cells; experiment: MTT growth inhibition assay, A2780; format: cell-based; details: 72 h, ± standard error, read-out: Growth Inhibition Concentration, GI50
Procedure: as §1, §2, §3, §4

[10] = tested on: MCF-10A (normal breast) cell line; experiment: MTT growth inhibition assay, MCF10A; format: cell-based; details: MCF10A normal breast cells, 72 h, ± standard error, read-out: Growth Inhibition Concentration, GI50
Procedure: as §1, §2, §3, §4

[11] = tested on: EJ-28 (muscle invasive bladder) cancer cells; experiment: MTT cytotoxicity assay, EJ-28; format: cell-based, human; details: EJ-28 cells, 72 h, ± standard error, read-out: Growth Inhibition Concentration, GI50
Procedure: as §1, §5

| SMILES | GI50 [1] [µM] | GI50 [2] [µM] | Bathochromism Shift (nm) (calf thymus DNA (CT-DNA)) | Hypochromism, (%) (calf thymus DNA (CT-DNA)) | Gibbs Free Energy (calf thymus DNA (CT-DNA)) [kcal/mol] | GI50 [3] [µM] | GI50 [4] [µM] | GI50 [5] [µM] | GI50 (A431 (skin) cancer cells) [µM] | GI50 [6] [µM] | GI50 [7] [µM] | GI50 (H460 (lung) cancer cells) [µM] | GI50 [8] [µM] | GI50 [9] [µM] | GI50 [10] [µM] | GI50 [11] [µM] | greater activity than respective Schiff base ([5]; GI50 comparison) [fold] |
| --- | --- | --- | --- | --- | --- | --- | --- | --- | --- | --- | --- | --- | --- | --- | --- | --- | --- |
| COc1cccc2c1[O][Sn]([CH3])([CH3])[S]C(SCc1ccccc1C)=NN=C2 [Me2Sn(S2MoVa), Dimethyltin(IV) [S-2-Methybenzyl-β-N-(2-hydroxy-3-methoxybenzylmethylene) dithiocarbazate]] | 3.6 ± 0.23 | 3.9 ± 0.07 | 10 | 37.97 | -7.55 | 2.9 ± 0.03 | 3.1 ± 0.12 | 2.5 ± 0.3 | 3 ± 0.03 | 2.7 ± 0.1 | 2.4 ± 0.77 | 3.3 ± 0.13 | 3.9 ± 0.03 | 3.1 ± 0.06 | 3 ± 0.09 | 2.5 ± 0.78 | – |
| COc1cccc2c1[O][Sn]([CH3])([CH3])[S]C(SCc1ccc(C)cc1)=NN=C2 [Me2Sn(S4MoVa), Dimethyltin(IV) [S-4-Methybenzyl-β-N-(2-hydroxy-3-methoxybenzylmethylene) dithiocarbazate]] | 3.3 ± 0.18 | 8.9 ± 1.3 | 7 | 43.72 | -7.67 | 3.3 ± 0.23 | 3.3 ± 0.32 | 3.1 ± 0.55 | 4.2 ± 0.34 | 6.9 ± 3.5 | > 5 | 4.7 ± 0.46 | 4.2 ± 0.1 | 3.1 ± 0.63 | 3.3 ± 0.15 | > 5 | – |
| COc1cccc2c1[O][Sn]([CH3])([CH3])[S]C(SCc1ccccc1)=NN=C2 [Me2Sn(SBoVa), Dimethyltin(IV) [S-Benzyl-β-N-(2-hydroxy-3-methoxybenzylmethylene) dithiocarbazate]] | 4.5 ± 0.19 | 5 ± 0.09 | 1 | 53.26 | -8.99 | 2.7 ± 0.13 | 2.5 ± 0.21 | 2.1 ± 0.12 | 3.2 ± 0.03 | 2.8 ± 0.15 | 2.4 ± 0.33 | 3.8 ± 0.1 | 3.2 ± 0.13 | 3.2 ± 0.03 | 2.8 ± 0.41 | 3.4 ± 0.3 | – |
| COc1cccc2c1[O][Sn]([c]1ccccc1)([c]1ccccc1)[S]C(SCc1ccccc1)=NN=C2 [Ph2Sn(SBoVa), Diphenyltin(IV) [S-Benzyl-β-N-(2-hydroxy-3-methoxybenzylmethylene) dithiocarbazate]] | 1.1 ± 0.39 | 0.43 ± 0.04 | 12 | 70.72 | -8.29 | 0.5 ± 0.05 | 0.9 ± 0.16 | 0.74 ± 0.15 | 1.6 ± 0.07 | 1.2 ± 0.22 | 0.58 ± 0.29 | 2.2 | 1.4 ± 0.33 | 0.23 ± 0.03 | 1.3 ± 0.2 | 0.32 ± 0.05 | 3 |
